Laboratory results: the NIST ThermoML archive (doi:10.1021/je9004849)

Settings: Fluid (supercritical or subcritical phases), Buoyancy - hydrostatic balance with magnetic suspension - one sinker

C [methane]
Settings | mass density [kg/m3]
298.14 K, 20012 kPa | 157.172
298.14 K, 29958 kPa | 212.508
298.14 K, 35056 kPa | 232.422
298.14 K, 49959 kPa | 273.189
298.14 K, 99874 kPa | 342.269
298.14 K, 124934 kPa | 363.139
298.14 K, 150062 kPa | 380.039
298.14 K, 159617 kPa | 385.731
298.14 K, 170054 kPa | 391.531
298.14 K, 185333 kPa | 399.489
298.14 K, 186931 kPa | 400.257
298.14 K, 188059 kPa | 400.837
298.15 K, 10010 kPa | 76.08
298.15 K, 79980 kPa | 321.098
298.16 K, 1012 kPa | 6.665
298.16 K, 66961 kPa | 303.605
298.19 K, 5009 kPa | 35.316
298.25 K, 14994 kPa | 118.506
305.23 K, 9993 kPa | 72.932
305.23 K, 49968 kPa | 267.232
305.23 K, 60012 kPa | 287.019
305.23 K, 79855 kPa | 316.163
305.23 K, 99904 kPa | 337.939
305.23 K, 124930 kPa | 359.159
305.23 K, 149862 kPa | 376.248
305.24 K, 1002 kPa | 6.404
305.24 K, 2000 kPa | 13.031
305.24 K, 5001 kPa | 34.173
305.24 K, 6897 kPa | 48.435
305.24 K, 15006 kPa | 113.44
305.24 K, 20696 kPa | 155.024
305.24 K, 29976 kPa | 205.443
305.24 K, 34563 kPa | 223.779
305.24 K, 69988 kPa | 302.917
338.04 K, 6905 kPa | 42.093
338.05 K, 5000 kPa | 29.983
338.05 K, 34473 kPa | 195.446
338.06 K, 70001 kPa | 280.639
338.07 K, 124895 kPa | 341.685
338.07 K, 149542 kPa | 359.787
338.08 K, 1004 kPa | 5.782
338.08 K, 2004 kPa | 11.667
338.08 K, 15026 kPa | 95.246
338.08 K, 20687 kPa | 130.132
338.08 K, 30005 kPa | 177.38
338.08 K, 50031 kPa | 241.969
338.08 K, 59971 kPa | 263.229
338.09 K, 164905 kPa | 369.665
338.1 K, 9969 kPa | 62.054
338.1 K, 80310 kPa | 295.61
338.11 K, 99908 kPa | 318.744
338.12 K, 179829 kPa | 378.164
399.94 K, 89964 kPa | 274.637
399.97 K, 59973 kPa | 225.951
399.98 K, 1002 kPa | 4.86
399.98 K, 30014 kPa | 141.158
399.99 K, 15027 kPa | 74.789
400 K, 50037 kPa | 203.469
400 K, 79920 kPa | 260.652
400.01 K, 2001 kPa | 9.744
400.01 K, 6915 kPa | 34.195
400.01 K, 10002 kPa | 49.746
400.02 K, 20675 kPa | 101.642
400.02 K, 124882 kPa | 312.062
400.02 K, 149627 kPa | 332.136
400.03 K, 13795 kPa | 68.723
400.04 K, 34510 kPa | 157.64
400.04 K, 69978 kPa | 244.725
400.07 K, 5005 kPa | 24.61
400.09 K, 99984 kPa | 286.8
450 K, 2009 kPa | 8.61
450.01 K, 20697 kPa | 87.478
450.01 K, 99932 kPa | 264.608
450.02 K, 89981 kPa | 251.923
450.02 K, 119918 kPa | 286.376
450.03 K, 59975 kPa | 202.137
450.03 K, 139476 kPa | 304.187
450.05 K, 30002 kPa | 121.791
450.06 K, 50036 kPa | 179.955
450.06 K, 69966 kPa | 221.073
450.08 K, 80008 kPa | 237.571
450.09 K, 6886 kPa | 29.741
450.12 K, 34492 kPa | 136.647
